# Assay results from patent US4038410A, “Nitroimidazole derivatives and process for the preparation thereof” (Schering Aktiengesellschaft, priority 1974, dated 1977).
# Read-outs that look alike come from different tables or passages of the source.
# Key:
# Trichomonas vaginalis [1] = test: Minimum inhibitory concentration against Trichomonas vaginalis; format: cell-based
# Entamoeba histolytica = test: Minimum inhibitory concentration against Entamoeba histolytica; format: cell-based; conditions: Table II; for MIC: read-out: Minimum Inhibitory Concentration (MIC) in μg./ml. Against Entamoeba hist.
# Trichomonas vaginalis [2] = conditions: literature: C. Cosar, Arzneimittelforschung 16, 23 (1966); French Pat. No. 1,212,028; cited from earlier work
# [3] = Table I, read-out: Minimum Inhibitory Concentration (MIC) in μg./ml. Against Trich. vag.
# [4] = Table II, read-out: Minimum Inhibitory Concentration (MIC) in μg./ml. Against Trich vag.
Compound,MIC (Trichomonas vaginalis [1]; [4]) [mg/L],MIC (Entamoeba histolytica) [mg/L],further results
"Cc1ncc([N+](=O)[O-])n1CCO [Metronidazole, 5-nitro-2-methyl-1-(2-hydroxyethyl)-imidazole, reference compound]",1.6,> 100,MIC (Trichomonas vaginalis [1]; [3]): 1.6 mg/L; effective against Trichomonas vaginalis (Trichomonas vaginalis [2]): effective
Cc1nn([N+](=O)[O-])cc1-c1ncc([N+](=O)[O-])n1C [3-Methyl-4-(1-methyl-5-nitro-2-imidazolyl)-1-nitropyrazole],0.4,25,
Cn1nccc1-c1ncc([N+](=O)[O-])n1C [1-Methyl-5-(1-methyl-5-nitro-2-imidazolyl)-pyrazole],,,MIC (Trichomonas vaginalis [1]; [3]): 0.05 mg/L
Mixture of 5-Methyl-4-(1-methyl-5-nitro-2-imidazolyl)-isoxazole and 3-Methyl-4-(1-methyl-5-nitro-2-imidazolyl)-isoxazole,,,Minimum Inhibitory Concentration (MIC) in μg./ml. Against Trich vag. (Trichomonas vaginalis [1]; Table II): 0.2 mg/L; Minimum Inhibitory Concentration (MIC) in μg./ml. Against Entamoeba hist. (Entamoeba histolytica): 50 mg/L
Cc1c(-c2ncc([N+](=O)[O-])n2C)cnn1-c1ccc([N+](=O)[O-])cc1 [5-Methyl-4-(1-methyl-5-nitro-2-imidazolyl)-1-(4-nitrophenyl)-pyrazole],0.4,,
CN(C)C=CC(=O)c1ncc([N+](=O)[O-])n1C [3-Dimethylamino-1-(1-methyl-5-nitro-2-imidazolyl)-2-propenone],,,MIC (Trichomonas vaginalis [1]; [3]): 0.1 mg/L
Cn1c([N+](=O)[O-])cnc1-c1cc[nH]n1 [3-(1-Methyl-5-nitro-2-imidazolyl)-pyrazole],,,MIC (Trichomonas vaginalis [1]; [3]): 0.1 mg/L
"Mixture of 1,3-Dimethyl-4-(1-methyl-5-nitro-2-imidazolyl)-pyrazole and 1,5-Dimethyl-4-(1-methyl-5-nitro-2-imidazolyl)-pyrazole",,,Minimum Inhibitory Concentration (MIC) in μg./ml. Against Trich vag. (Trichomonas vaginalis [1]; Table II): 0.1 mg/L; Minimum Inhibitory Concentration (MIC) in μg./ml. Against Entamoeba hist. (Entamoeba histolytica): 12.5 mg/L
COc1ccc(-n2ncc(-c3ncc([N+](=O)[O-])n3C)c2C)cc1 [1-p-Anisyl-5-methyl-4-(1-methyl-5-nitro-2-imidazolyl)-pyrazole],0.2,,

# More lines, main results first:
MIC (Trichomonas vaginalis [1]; [4]) [mg/L],MIC (Entamoeba histolytica) [mg/L],Compound,further results
0.4,,Cc1nc(-c2ccco2)ncc1-c1ncc([N+](=O)[O-])n1C [2-(2-Furyl)-4-methyl-5-(1-methyl-5-nitro-2-imidazolyl)-pyrimidine],
0.2,12.5,Cc1[nH]ncc1-c1ncc([N+](=O)[O-])n1C [3(5)-Methyl-4-(1-methyl-5-nitro-2-imidazolyl)-pyrazole],
0.1,12.5,Cc1c(-c2ncc([N+](=O)[O-])n2C)cnn1-c1ccccc1 [5-Methyl-4-(1-methyl-5-nitro-2-imidazolyl)-1-phenylpyrazole],
0.2,,Cc1c(-c2ncc([N+](=O)[O-])n2C)cnn1-c1ccc(Cl)cc1 [1-(4-Chlorophenyl)-5-methyl-4-(1-methyl-5-nitro-2-imidazolyl)-pyrazole],
0.2,50,Cc1c(-c2ncc([N+](=O)[O-])n2C)cnn1CCO [2-[5-Methyl-4-(1-methyl-5-nitro-2-imidazolyl)-pyrazolyl]-ethanol],
0.1,,Cc1nc(N)ncc1-c1ncc([N+](=O)[O-])n1C [4-Methyl-5-(1-methyl-5-nitro-2-imidazolyl)-pyrimidine-2-amine],
